According to US9745311B2, “Substituted pyrrolo[2,3-b]pyrazines as FGFR inhibitors” (Incyte Corporation, priority 2012, dated 2017):
Where two headings read alike, the source gives them in different places.

Assays:
[1] = molecular target: FGFR2 (Homo sapiens (Human), UniProt P21802); assay: FGFR Enzymatic Assay (FGFR2); assay type: biochemical;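 note: FRET read-out of peptide phosphorylation by the purified kinase, with enzyme-free blank and uninhibited enzyme as controls, potency from a variable-slope sigmoidal dose-response fit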
Method: The inhibitor potency of compounds was measured in an enzyme assay that measures peptide phosphorylation using FRET measurements to detect product formation. Inhibitors were serially diluted in DMSO and a volume of 0.5 μL was transferred to the wells of a 384-well plate. For FGFR3, a 10 μL volume of FGFR3 enzyme (Millipore) diluted in assay buffer (50 mM HEPES, 10 mM MgCl2, 1 mM EGTA, 0.01% Tween-20, 5 mM DTT, pH 7.5) was added to the plate and pre-incubated for 5-10 minutes. Appropriate controls (enzyme blank and enzyme with no inhibitor) were included on the plate. […] The plate was incubated at 25° C. for 1 hr. […] The plate was allowed to equilibrate for ˜1 hr before scanning the wells on a PheraStar plate reader.
GraphPad prism3 was used to analyze the data. The IC50 values were derived by fitting the data to the equation for a sigmoidal dose-response with a variable slope. Y=Bottom+(Top−Bottom)/(1+10^((Log IC50−X)*HillSlope)) where X is the logarithm of concentration and Y is the response.

[2] = molecular target: FGFR1 (Homo sapiens (Human), UniProt P11362); assay: FGFR Enzymatic Assay (FGFR1); assay type: biochemical; settings: enzyme 0.02 nM, ATP 210 μM
[3] = molecular target: FGFR3 enzyme (Millipore) (Homo sapiens (Human), UniProt P22607); assay: biochemical
[4] = enzyme 0.01 nM, ATP 100 μM, read-out: FGFR2 IC50

FGFR1, sequence (P11362 22-822): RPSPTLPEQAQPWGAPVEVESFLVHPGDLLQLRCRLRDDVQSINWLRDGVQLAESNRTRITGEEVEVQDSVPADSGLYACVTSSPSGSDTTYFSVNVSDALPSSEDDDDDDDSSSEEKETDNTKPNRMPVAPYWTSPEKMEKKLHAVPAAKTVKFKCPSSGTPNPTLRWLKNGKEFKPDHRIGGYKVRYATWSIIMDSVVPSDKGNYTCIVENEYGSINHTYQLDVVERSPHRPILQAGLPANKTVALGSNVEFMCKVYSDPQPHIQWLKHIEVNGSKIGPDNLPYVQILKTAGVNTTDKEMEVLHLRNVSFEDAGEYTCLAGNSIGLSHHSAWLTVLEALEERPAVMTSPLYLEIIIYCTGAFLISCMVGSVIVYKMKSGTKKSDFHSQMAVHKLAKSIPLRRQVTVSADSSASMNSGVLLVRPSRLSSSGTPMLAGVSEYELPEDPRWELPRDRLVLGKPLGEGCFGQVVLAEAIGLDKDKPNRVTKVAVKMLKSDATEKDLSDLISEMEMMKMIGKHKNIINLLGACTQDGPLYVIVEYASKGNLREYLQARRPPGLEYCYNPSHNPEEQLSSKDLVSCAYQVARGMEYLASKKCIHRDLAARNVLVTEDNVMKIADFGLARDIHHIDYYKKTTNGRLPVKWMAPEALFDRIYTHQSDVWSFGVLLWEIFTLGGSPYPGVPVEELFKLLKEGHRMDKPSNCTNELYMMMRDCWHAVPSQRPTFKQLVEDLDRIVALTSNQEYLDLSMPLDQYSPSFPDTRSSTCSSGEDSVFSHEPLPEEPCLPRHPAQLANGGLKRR
FGFR2, sequence (P21802 22-821): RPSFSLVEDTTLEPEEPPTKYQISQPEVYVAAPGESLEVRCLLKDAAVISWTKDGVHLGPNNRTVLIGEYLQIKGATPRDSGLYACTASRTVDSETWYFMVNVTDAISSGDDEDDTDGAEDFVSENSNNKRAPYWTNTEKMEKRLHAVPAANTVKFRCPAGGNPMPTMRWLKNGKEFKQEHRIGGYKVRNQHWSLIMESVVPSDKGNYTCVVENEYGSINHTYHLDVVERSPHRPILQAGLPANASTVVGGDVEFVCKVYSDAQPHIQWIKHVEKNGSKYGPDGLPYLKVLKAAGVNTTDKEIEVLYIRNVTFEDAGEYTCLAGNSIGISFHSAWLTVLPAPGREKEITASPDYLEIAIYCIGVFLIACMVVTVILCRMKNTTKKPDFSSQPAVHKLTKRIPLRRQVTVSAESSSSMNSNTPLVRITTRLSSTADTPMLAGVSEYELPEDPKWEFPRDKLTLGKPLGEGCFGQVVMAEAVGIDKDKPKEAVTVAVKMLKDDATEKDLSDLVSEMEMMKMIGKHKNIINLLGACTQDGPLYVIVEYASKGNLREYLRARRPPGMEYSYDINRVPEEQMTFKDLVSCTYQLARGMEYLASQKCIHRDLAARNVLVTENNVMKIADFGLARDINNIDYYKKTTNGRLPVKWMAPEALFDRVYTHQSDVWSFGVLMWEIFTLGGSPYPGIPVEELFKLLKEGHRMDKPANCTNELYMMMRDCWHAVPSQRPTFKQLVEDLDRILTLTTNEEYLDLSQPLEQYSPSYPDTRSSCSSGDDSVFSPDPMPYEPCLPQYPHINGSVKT
FGFR3 enzyme (Millipore), sequence (P22607 23-806): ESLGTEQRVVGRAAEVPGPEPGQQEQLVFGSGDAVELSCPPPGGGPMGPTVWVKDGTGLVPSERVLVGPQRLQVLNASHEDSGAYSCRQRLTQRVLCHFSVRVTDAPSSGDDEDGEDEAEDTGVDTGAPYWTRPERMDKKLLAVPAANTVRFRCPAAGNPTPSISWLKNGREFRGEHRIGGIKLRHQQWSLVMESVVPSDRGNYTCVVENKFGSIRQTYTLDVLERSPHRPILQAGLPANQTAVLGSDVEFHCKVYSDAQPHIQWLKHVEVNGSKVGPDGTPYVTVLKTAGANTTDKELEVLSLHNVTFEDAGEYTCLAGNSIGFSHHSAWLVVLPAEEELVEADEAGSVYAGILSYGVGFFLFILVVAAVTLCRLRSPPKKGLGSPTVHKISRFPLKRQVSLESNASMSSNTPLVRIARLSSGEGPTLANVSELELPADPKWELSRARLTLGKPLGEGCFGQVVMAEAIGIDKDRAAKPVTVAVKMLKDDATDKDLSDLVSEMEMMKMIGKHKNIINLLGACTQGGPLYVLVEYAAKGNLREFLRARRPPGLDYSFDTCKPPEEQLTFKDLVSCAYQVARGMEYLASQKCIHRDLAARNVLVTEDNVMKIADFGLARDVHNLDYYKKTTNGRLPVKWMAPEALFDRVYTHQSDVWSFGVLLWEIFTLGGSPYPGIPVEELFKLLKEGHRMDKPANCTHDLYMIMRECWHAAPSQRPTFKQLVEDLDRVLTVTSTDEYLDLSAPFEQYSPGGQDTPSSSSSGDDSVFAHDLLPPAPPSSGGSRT

SMILES: COc1cc(CCc2cnc3[nH]c(-c4cn[nH]c4)cc3n2)cc(OC)c1 [Example 29, 2-[2-(3,5-dimethoxyphenyl)ethyl]-6-(1H-pyrazol-4-yl)-5H-pyrrolo[2,3-b]pyrazine]
- IC50 [1, 4]: < 100 nM
- IC50 [2]: < 100 nM
- IC50 [3]: 100 to 500 nM

SMILES: COc1cc(CCc2cnc3[nH]c(-c4cnn(CCO)c4)cc3n2)cc(OC)c1 [Example 38, 2-(4-{2-[2-(3,5-dimethoxyphenyl)ethyl]-5H-pyrrolo[2,3-b]pyrazin-6-yl}-1H-pyrazol-1-yl)ethanol]
- IC50 [1, 4]: < 100 nM
- IC50 [2]: < 100 nM
- IC50 [3]: 100 to 500 nM

SMILES: COc1cc(CCc2cnc3[nH]c(-c4ccc(OC)nc4)cc3n2)cc(OC)c1 [Example 61, 2-(3,5-Dimethoxyphenethyl)-6-(6-methoxypyridin-3-yl)-5H-pyrrolo[2,3-b]pyrazine]
- IC50 [1, 4]: < 100 nM
- IC50 [2]: < 100 nM
- IC50 [3]: 100 to 500 nM

SMILES: COc1cc(CCc2cnc3[nH]c(-c4ccccc4C)cc3n2)cc(OC)c1 [Example 9, 2-[2-(3,5-dimethoxyphenyl)ethyl]-6-(2-methylphenyl)-5H-pyrrolo[2,3-b]pyrazine]
- IC50 [1]: 100 to 500 nM
- IC50 [2]: < 100 nM
- IC50 [3]: 500 to 2700 nM
